Data from patent US20040053842A1, “Methods of treatment with CETP inhibitors and antihypertensive agents” (Pfizer Inc., priority 2002, published 2004).

Test: aqueous solubility
Type: physicochemical
Conditions: aqueous environments

SMILES: CCOC(=O)N1c2ccc(C(F)(F)F)cc2[C@@H](N(Cc2cc(C(F)(F)F)cc(C(F)(F)F)c2)C(=O)OC)C[C@H]1CC [torceptrapib, [2R,4S]-4-[(3,5-bis-trifluoromethyl-benzyl)-methoxycarbonyl-amino]-2-ethyl-6-trifluoromethyl-3,4-dihydro-2H-quinoline-1-carboxylic acid ethyl ester]
- solubility: < 0.04 µg/mL
